# PubChem BioAssay (NCI)
#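 In this assay, cells in 96-well plates receive the compound at five concentrations for 48 hours. Endpoints are linearly interpolated between the surrounding concentrations. GI50: concentration for 50% inhibition of growth. TGI: concentration producing complete growth inhibition.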
# Key:
# Assay in all cases: DTP human tumour cell line panel, 48 h
# [1] = tested on: 786-0 renal
# [2] = tested on: A498 renal
# [3] = tested on: A549 NSCLC
# [4] = tested on: ACHN renal
# [5] = tested on: BT-549 breast
# [6] = tested on: CAKI-1 renal
# [7] = tested on: CCRF-CEM leukemia
# [8] = tested on: COLO 205 colon
# [9] = tested on: DU-145 prostate
# [10] = tested on: EKVX NSCLC
# [11] = tested on: HCC-2998 colon
# [12] = tested on: HCT-116 colon
# [13] = tested on: HCT-15 colon
# [14] = tested on: HL-60(TB) leukemia
# [15] = tested on: HOP-62 NSCLC
# [16] = tested on: HOP-92 NSCLC
# [17] = tested on: HS 578T breast
# [18] = tested on: HT29 colon
# [19] = tested on: IGROV1 ovarian
# [20] = tested on: K-562 leukemia
# [21] = tested on: KM12 colon
# [22] = tested on: LOX IMVI melanoma
# [23] = tested on: M14 melanoma
# [24] = tested on: MALME-3M melanoma
# [25] = tested on: MCF7 breast
# [26] = tested on: MDA-MB-231 breast
# [27] = tested on: MDA-MB-435
# [28] = tested on: MDA-MB-468 breast
# [29] = tested on: MOLT-4 leukemia
# [30] = tested on: NCI-H226 lung
# [31] = tested on: NCI-H23 lung
# [32] = tested on: NCI-H460 lung
# [33] = tested on: NCI-H522 lung
# [34] = tested on: NCI/ADR-RES ovarian
# [35] = tested on: OVCAR-3 ovarian
# [36] = tested on: OVCAR-4 ovarian
# [37] = tested on: OVCAR-5 ovarian
# [38] = tested on: OVCAR-8 ovarian
# [39] = tested on: PC-3 prostate
# [40] = tested on: RPMI-8226 leukemia
# [41] = tested on: RXF 393 renal
# [42] = tested on: SF-268 CNS
# [43] = tested on: SF-295 CNS
# [44] = tested on: SF-539 CNS
# [45] = tested on: SK-MEL-2 melanoma
# [46] = tested on: SK-MEL-28 melanoma
# [47] = tested on: SK-MEL-5 melanoma
# [48] = tested on: SK-OV-3 ovarian
# [49] = tested on: SN12C renal
# [50] = tested on: SNB-19 CNS
# [51] = tested on: SNB-75 CNS
# [52] = tested on: SR leukemia
# [53] = tested on: SW-620 colon
# [54] = tested on: T-47D breast
# [55] = tested on: TK-10 renal
# [56] = tested on: U251 CNS
# [57] = tested on: UACC-257 melanoma
# [58] = tested on: UACC-62 melanoma
# [59] = tested on: UO-31 renal
smiles,measurement,setting,value
Cc1ccc(-c2ccc(SCC(=O)Nc3ccc(S(N)(=O)=O)cc3Br)nn2)cc1,GI50,[1],16.4 µM
same,TGI,[1],47 µM
same,GI50,[2],19.3 µM
same,TGI,[2],34.4 µM
same,GI50,[3],15 µM
same,TGI,[3],30.9 µM
same,GI50,[4],12 µM
same,TGI,[4],24.4 µM
same,GI50,[5],15.7 µM
same,TGI,[5],44.2 µM
same,GI50,[6],12.3 µM
same,TGI,[6],28.5 µM
same,GI50,[7],> 100 µM
same,TGI,[7],> 100 µM
same,GI50,[8],17.4 µM
same,TGI,[8],41.2 µM
same,GI50,[9],13.3 µM
same,TGI,[9],32.1 µM
same,GI50,[10],15.5 µM
same,TGI,[10],31.3 µM
same,GI50,[11],11.5 µM
same,TGI,[11],28.1 µM
same,GI50,[12],3.67 µM
same,TGI,[12],17.2 µM
same,GI50,[13],11.3 µM
same,TGI,[13],23.4 µM
same,GI50,[14],> 100 µM
same,TGI,[14],> 100 µM
same,GI50,[15],6.99 µM
same,TGI,[15],24.2 µM
same,GI50,[16],2.97 µM
same,TGI,[16],13.5 µM
same,GI50,[17],13.1 µM
same,TGI,[17],45.3 µM
same,GI50,[18],7.6 µM
same,TGI,[18],68.8 µM
same,GI50,[19],15.9 µM
same,TGI,[19],31.3 µM
same,GI50,[20],36.3 µM
same,TGI,[20],> 100 µM
same,GI50,[21],28.3 µM
same,TGI,[21],> 100 µM
same,GI50,[22],10.4 µM
same,TGI,[22],25.5 µM
same,GI50,[23],30.5 µM
same,TGI,[23],> 100 µM
same,GI50,[24],13.7 µM
same,TGI,[24],28.8 µM
same,GI50,[25],15.4 µM
same,TGI,[25],37.1 µM
same,GI50,[26],4.19 µM
same,TGI,[26],15.5 µM
same,GI50,[27],25.4 µM
same,TGI,[27],> 100 µM
same,GI50,[28],15.3 µM
same,TGI,[28],36.4 µM
same,GI50,[29],> 100 µM
same,TGI,[29],> 100 µM
same,GI50,[30],7.32 µM
same,TGI,[30],24.7 µM
same,GI50,[31],9.73 µM
same,TGI,[31],21.4 µM
same,GI50,[32],10.3 µM
same,TGI,[32],29 µM
same,GI50,[33],10.9 µM
same,TGI,[33],25.4 µM
same,GI50,[34],9.62 µM
same,TGI,[34],> 100 µM
same,GI50,[35],16.9 µM
same,TGI,[35],32.4 µM
same,GI50,[36],14.1 µM
same,TGI,[36],35 µM
same,GI50,[37],15 µM
same,TGI,[37],32.4 µM
same,GI50,[38],13.3 µM
same,TGI,[38],29.6 µM
same,GI50,[39],5.64 µM
same,TGI,[39],22.5 µM
same,GI50,[40],> 100 µM
same,TGI,[40],> 100 µM
same,GI50,[41],3.96 µM
same,TGI,[41],20.5 µM
same,GI50,[42],18.4 µM
same,TGI,[42],48.9 µM
same,GI50,[43],10.5 µM
same,TGI,[43],22.3 µM
same,GI50,[44],10.4 µM
same,TGI,[44],22.2 µM
same,GI50,[45],16.4 µM
same,TGI,[45],35.3 µM
same,GI50,[46],13.4 µM
same,TGI,[46],27 µM
same,GI50,[47],13.1 µM
same,TGI,[47],26.5 µM
same,GI50,[48],15.1 µM
same,TGI,[48],29.3 µM
same,GI50,[49],23.8 µM
same,TGI,[49],60 µM
same,GI50,[50],11.3 µM
same,TGI,[50],23.3 µM
same,GI50,[51],13.6 µM
same,TGI,[51],37.1 µM
same,GI50,[52],60.4 µM
same,TGI,[52],> 100 µM
same,GI50,[53],27.2 µM
same,TGI,[53],> 100 µM
same,GI50,[54],10.6 µM
same,TGI,[54],34.3 µM
same,GI50,[55],17.6 µM
same,TGI,[55],39.5 µM
same,GI50,[56],6.17 µM
same,TGI,[56],24 µM
same,GI50,[57],22.7 µM
same,TGI,[57],64.9 µM
same,GI50,[58],13.2 µM
same,TGI,[58],26.2 µM
same,GI50,[59],14.7 µM
same,TGI,[59],28.6 µM
